The numbers were not newly measured in US20240165036A1, “ENCAPSULATED VITAMIN D” (Nulixir Inc., priority 2022, published 2024), which cites them from elsewhere.

For this data set the following is noted: reference phases water and n-octanol; pH=7 unless stated otherwise.
In the case of `O=C(/C=C/c1ccccc1)N1CCCC1` [(E)-1-cinnamoylpyrrolidine], the log partition coefficient (log P) is on record as about 2.2.
As for `O=C(O)c1cc(C(=O)O)c2c(n1)C(=O)C(=O)c1cc(C(=O)O)[nH]c1-2` [PQQ, pyrroloquinoline quinone], the log partition coefficient (log P) was about 0.4.
On to `CCNC(=O)CC[C@H](N)C(=O)O` [L-theanine], for which the “log P” value is recorded as about −3.
In the case of `COc1cc(O)c2c(=O)c(OC)c(-c3ccc(O)cc3)oc2c1` [kumatakenin], the log partition coefficient (log P) is about 2.5.
On to `COc1ccc(/C=C/c2cc(OC)cc(=O)o2)cc1` [yangonin], for which the log partition coefficient (log P) is about 2.8.
In the case of `N[C@@H](Cc1c[nH]c2ccc(O)cc12)C(=O)O` [Dispersion 5-HTP, 5-hydroxytryptophan], the “log P” value was about −2.
`NCCCC(=O)O` [GABA, gamma-aminobutyric acid]: the log partition coefficient (log P) was about −3.
`N[C@@H](Cc1ccccc1)C(=O)O` [L-phenylalanine]: the lipophilicity (log P) is about −1.38.
On to `Cn1cnc2c1c(=O)[nH]c(=O)n2C` [theobromine], for which the log partition coefficient (log P) is about −0.78.

As a reminder, the log P is a log measure of how a compound divides between an organic and an aqueous phase.
